The results in this text go back to patent US20200131669A1, “CYCLIC PEPTIDE COMPOUND HAVING HIGH MEMBRANE PERMEABILITY, AND LIBRARY CONTAINING SAME” (Chugai Seiyaku Kabushiki Kaisha, priority 2017, published 2020).

Starred links: 1 amine or outer side, 2 acyl side, 3 side chain; linkers in the order of their positions; H or OH if unused. Positions of bridges follow the written chain, without caps; N, C: chain ends. Non-standard residues stand in square brackets, D forms with d. Residues, ends and D or L forms follow the SMILES beside them. *: point of attachment. NMeAbu(3,3-F2-piperidino) = CN[C@@H](CCN1CCCC(F)(F)C1)C(=O)O; NMePhe(3-Cl) = CN[C@@H](Cc1cccc(Cl)c1)C(=O)O; hPhe(3-Cl) = N[C@@H](CCc1cccc(Cl)c1)C(=O)O; hPhe(4-Cl) = N[C@@H](CCc1ccc(Cl)cc1)C(=O)O; hhPhe = N[C@@H](CCCc1ccccc1)C(=O)O; X3 = O=C([C@H](CCCCO)N[*:1])[*:2]; NMeF = CN[C@@H](Cc1ccccc1)C(=O)O; NMeGABA = CN(CCCC(=O)[*:2])[*:1]; NMeI = CC[C@H](C)[C@H](NC)C(=O)O; CH2CONHtBu = CC(C)(C)NC(=O)C*; NMeL = CN[C@@H](CC(C)C)C(=O)O; NMeV = CN[C@H](C(=O)O)C(C)C; NMeAbu = CC[C@H](NC)C(=O)O; NPentylGly = CCCCCNCC(=O)O; hSer = N[C@@H](CCO)C(=O)O; NMeA = CN[C@@H](C)C(=O)O; Piperidide = C1CCN(*)CC1; CH2CMe2OH = CC(C)(O)C*; NBuGly = CCCCNCC(=O)O; NPrGly = CCCNCC(=O)O; X11 = FC(F)C(F)(F)C*; Sar = CNCC(=O)O; tBu = CC(C)(C)*

The test system of the first data set is Caco-2 cells. Put plainly: Caco-2 membrane permeability, improved method as used in the following Examples (96-well, 20 to 24 h preincubation). As to conditions: Papp, Caco-2 membrane permeability, improved method. The class given is in vitro ADME. In a few lines: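 Papp (cm/sec) was derived from LC/MS of basal samples collected 180 min after apical dosing in FaSSIF/HBSS pH 6.0 with 1% DMSO, against a basal HBSS pH 7.4 receiver containing 4% BSA. Three-week Caco-2 cultures were first preincubated with compound in DMEM+FaSSIF at 37 °C for 20–24 h.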
For orientation: Passage across Caco-2 layers is used to estimate intestinal permeability.
Take `CCOCC[C@@H]1NC(=O)[C@H](CC(C)C)N(C)C(=O)CN(C)C(=O)[C@H]([C@@H](C)O)NC(=O)[C@H](CC(C)C)N(C)C(=O)[C@H](CC(C)C)NC(=O)[C@H](Cc2ccccc2)N(C)C(=O)[C@@H](CC(C)C)NC(=O)C[C@@H](C(=O)N2CCCCC2)NC(=O)[C@H](CC(C)C)N(C)C(=O)[C@H](Cc2ccccc2)N(C)C1=O` [pd444] ([dL][NMeF]L[NMeL]T[Sar][NMeL][hSer](Et)[NMeF][NMeL]D-Piperidide; lactam N-11): the Caco-2 came to 1.1e-06 cm/s.
Consider `CC(C)C[C@H]1C(=O)N[C@@H](CCCCO)C(=O)N(C)[C@@H](CC(C)C)C(=O)N(C)[C@@H](CC(C)C)C(=O)N[C@H](C(=O)N2CCCCC2)CC(=O)N(C)CCCC(=O)N(C)[C@@H](C(C)C)C(=O)N[C@@H](C(C)C)C(=O)N(C)[C@@H](Cc2ccccc2)C(=O)N(C)[C@@H](Cc2ccccc2)C(=O)N[C@@H](COC(C)(C)C)C(=O)N1C` [pd447] ([NMeGABA][NMeV]V[NMeF][NMeF]S(tBu)[NMeL][X3][NMeL][NMeL]D-Piperidide; lactam N-11), for which the Caco-2 came to 1.1e-06 cm/s.

Still in this data set, the particulars now being: human, Caco-2, 180 min.
In turn, `CC[C@H](C)[C@H]1C(=O)N[C@@H]([C@@H](C)O)C(=O)N(C)CC(=O)N(C)[C@@H](CC(C)C)C(=O)N[C@H](C(=O)N2CCCCC2)CC(=O)N(C)[C@@H](C)C(=O)N[C@@H](CC(C)C)C(=O)N(C)[C@@H](CC(C)C)C(=O)N(C)[C@@H](Cc2ccccc2)C(=O)N[C@@H](COCC(F)(F)C(F)F)C(=O)N(C)[C@@H](Cc2ccccc2)C(=O)N1C` [pd348] ([NMeA]L[NMeL][NMeF]S(X11)[NMeF][NMeI]T[Sar][NMeL]D-Piperidide; lactam N-11) yielded a Caco-2 of 1.1e-06 cm/s.
Same read-out and setting: with `CC[C@H](C)[C@@H]1NC(=O)[C@H](Cc2ccccc2)N(C)C(=O)CN(C)C(=O)C[C@@H](C(=O)N2CCCCC2)NC(=O)[C@H](C(C)C)N(C)C(=O)[C@H](CCc2cccc(Cl)c2)NC(=O)[C@H](CC(C)C)N(C)C(=O)[C@H](CC(C)C)N(C)C(=O)CN(C)C(=O)[C@H]([C@@H](C)O)NC(=O)[C@H](CC(C)C)N(C)C1=O` [pd358] ([Sar][NMeF]I[NMeL]T[Sar][NMeL][NMeL][hPhe(3-Cl)][NMeV]D-Piperidide; lactam N-11) the figure was 1.1e-06 cm/s.
In the case of `CC(C)C[C@H]1C(=O)N[C@@H](COC(C)(C)C)C(=O)N(C)[C@@H](Cc2ccccc2)C(=O)N(C)[C@@H](C(C)C)C(=O)N[C@H](C(=O)N2CCCCC2)CC(=O)N[C@H](C(C)C)C(=O)N(C)[C@@H](C)C(=O)N[C@@H](CCc2ccc(Cl)cc2)C(=O)N(C)[C@@H](CC(C)C)C(=O)N[C@@H]([C@@H](C)O)C(=O)N(C)CC(=O)N1C` [pd359] ([dV][NMeA][hPhe(4-Cl)][NMeL]T[Sar][NMeL]S(tBu)[NMeF][NMeV]D-Piperidide; lactam N-11), the Caco-2 was 1.1e-06 cm/s.
`CC(C)C[C@H]1C(=O)N[C@H](C(=O)N2CCCCC2)CC(=O)N(C)[C@@H](C)C(=O)N[C@@H](CCc2ccc(Cl)cc2)C(=O)N(C)[C@@H](CC(C)C)C(=O)N(C)[C@@H](CC(C)C)C(=O)N[C@@H](C)C(=O)N(C)[C@@H](Cc2ccccc2)C(=O)N(C)[C@@H](C(C)C)C(=O)N[C@@H]([C@@H](C)O)C(=O)N(C)CC(=O)N1C` [pd361] ([NMeA][hPhe(4-Cl)][NMeL][NMeL]A[NMeF][NMeV]T[Sar][NMeL]D-Piperidide; lactam N-11) displayed a Caco-2 of 1.1e-06 cm/s.
On the same count and under the same terms, with `CC(C)C[C@H]1C(=O)N[C@@H](COC(C)(C)C)C(=O)N(C)[C@@H](Cc2ccccc2)C(=O)N(C)[C@@H](C)C(=O)N[C@H](C(=O)N2CCCCC2)CC(=O)N[C@H](C(C)C)C(=O)N(C)[C@@H](Cc2ccccc2)C(=O)N[C@@H](CCCc2ccccc2)C(=O)N(C)[C@@H](CC(C)C)C(=O)N[C@@H]([C@@H](C)O)C(=O)N(C)CC(=O)N1C` [pd363] ([dV][NMeF][hhPhe][NMeL]T[Sar][NMeL]S(tBu)[NMeF][NMeA]D-Piperidide; lactam N-11) the figure was 1.1e-06 cm/s.
As to `CC(C)C[C@@H]1NC(=O)[C@H](CCN2CCCC(F)(F)C2)N(C)C(=O)[C@@H](C(C)C)NC(=O)C[C@@H](C(=O)N2CCCCC2)NC(=O)[C@H](C)N(C)C(=O)[C@H](Cc2cccc(Cl)c2)N(C)C(=O)[C@H](CC(C)C)NC(=O)[C@H](CC(C)C)N(C)C(=O)CN(C)C(=O)[C@H]([C@@H](C)O)NC(=O)[C@H](Cc2ccccc2)N(C)C1=O` [pd389] ([dV][NMeAbu(3,3-F2-piperidino)]L[NMeF]T[Sar][NMeL]L[NMePhe(3-Cl)][NMeA]D-Piperidide; lactam N-11), the Caco-2 was determined as 1.1e-06 cm/s.
Still for that read-out and setting: to `CCCCCN1CC(=O)N[C@@H](COC(C)(C)C)C(=O)N(C)[C@@H](Cc2ccccc2)C(=O)N(C)[C@@H](CC(C)C)C(=O)N[C@H](C(=O)N2CCCCC2)CC(=O)N[C@H](CC(C)C)C(=O)N(C)[C@@H](Cc2ccccc2)C(=O)N[C@@H]([C@@H](C)CC)C(=O)N(C)[C@@H](CC)C(=O)N[C@@H]([C@@H](C)O)C(=O)N(C)CC1=O` [pd406] ([dL][NMeF]I[NMeAbu]T[Sar][NPentylGly]S(tBu)[NMeF][NMeL]D-Piperidide; lactam N-11) belongs 1.1e-06 cm/s; to `CCCN1CC(=O)N(C)[C@@H](Cc2ccccc2)C(=O)N[C@@H]([C@@H](C)CC)C(=O)N(C)[C@@H](CC(C)C)C(=O)N[C@@H]([C@@H](C)O)C(=O)N(CCC)CC(=O)N(C)[C@@H](Cc2ccccc2)C(=O)N(C)[C@@H](CC(C)C)C(=O)N[C@@H](COCC(C)(C)O)C(=O)N(C)[C@@H](C(C)C)C(=O)N[C@H](C(=O)N2CCCCC2)CC1=O` [pd431] ([NPrGly][NMeF]I[NMeL]T[NPrGly][NMeF][NMeL]S(CH2CMe2OH)[NMeV]D-Piperidide; lactam N-11), 1.1e-06 cm/s.
Same read-out and setting: to `CCCN1CC(=O)N(C)[C@@H](CC(C)C)C(=O)N[C@@H](CC(C)C)C(=O)N(C)[C@@H](Cc2ccccc2)C(=O)N(C)[C@@H](C)C(=O)N[C@H](C(=O)N2CCCCC2)CC(=O)N[C@H](CC(C)C)C(=O)N(C)[C@@H](Cc2ccccc2)C(=O)N[C@@H](COCC(=O)NC(C)(C)C)C(=O)N(C)[C@@H](CC(C)C)C(=O)N[C@@H]([C@@H](C)O)C1=O` [pd442] ([dL][NMeF]S(CH2CONHtBu)[NMeL]T[NPrGly][NMeL]L[NMeF][NMeA]D-Piperidide; lactam N-11) belongs 1.1e-06 cm/s; to `CCCCN1CC(=O)N(C)[C@@H](Cc2ccccc2)C(=O)N(C)[C@@H](CC(C)C)C(=O)N[C@@H](CC(C)C)C(=O)N(C)[C@@H](CC(C)C)C(=O)N[C@H](C(=O)N2CCCCC2)CC(=O)N(C)CC(=O)N(C)[C@@H](Cc2ccccc2)C(=O)N[C@@H](CCOCC)C(=O)N(C)[C@@H](CC(C)C)C(=O)N[C@@H]([C@@H](C)O)C1=O` [pd445] ([Sar][NMeF][hSer](Et)[NMeL]T[NBuGly][NMeF][NMeL]L[NMeL]D-Piperidide; lactam N-11), 1.1e-06 cm/s.
